Results published in ChEMBL document CHEMBL5465560, “Selectivity Literature for EUbOPEN Chemogenomic Library” (2024).

Legend:
[1] = test system: Tyrosine-protein kinase ABL1 (Homo sapiens), P00519 [T315I]; experiment: (§1) Selectivity interaction (KinomeScan (DiscoverX)) EUB0000229b ABL1; settings: at 1 µM
[2] = test system: Tyrosine-protein kinase ABL1 (Homo sapiens), P00519 [E255K]; experiment: as §1; settings: at 1 µM
[3] = test system: Tyrosine-protein kinase ABL1 (Homo sapiens), P00519 [F317I]; experiment: as §1; settings: at 1 µM
[4] = test system: Tyrosine-protein kinase ABL1 (Homo sapiens), P00519 [Y253F]; experiment: as §1; settings: at 1 µM
[5] = test system: Tyrosine-protein kinase ABL1 (Homo sapiens), P00519 [F317L]; experiment: as §1; settings: at 1 µM
[6] = test system: Tyrosine-protein kinase ABL1 (Homo sapiens), P00519 [H396P]; experiment: as §1; settings: at 1 µM
[7] = test system: Tyrosine-protein kinase ABL1 (Homo sapiens), P00519 [M351T]; experiment: as §1; settings: at 1 µM
[8] = test system: Tyrosine-protein kinase ABL1 (Homo sapiens), P00519 [Q252H]; experiment: as §1; settings: at 1 µM
[9] = molecular target: T1, Serine/threonine-protein kinase DCLK3 (Homo sapiens) (UniProt Q9C098); experiment: Selectivity interaction (KinomeScan (DiscoverX)) EUB0000092b DCLK3; settings: at 10 µM
T1 sequence (whole entry): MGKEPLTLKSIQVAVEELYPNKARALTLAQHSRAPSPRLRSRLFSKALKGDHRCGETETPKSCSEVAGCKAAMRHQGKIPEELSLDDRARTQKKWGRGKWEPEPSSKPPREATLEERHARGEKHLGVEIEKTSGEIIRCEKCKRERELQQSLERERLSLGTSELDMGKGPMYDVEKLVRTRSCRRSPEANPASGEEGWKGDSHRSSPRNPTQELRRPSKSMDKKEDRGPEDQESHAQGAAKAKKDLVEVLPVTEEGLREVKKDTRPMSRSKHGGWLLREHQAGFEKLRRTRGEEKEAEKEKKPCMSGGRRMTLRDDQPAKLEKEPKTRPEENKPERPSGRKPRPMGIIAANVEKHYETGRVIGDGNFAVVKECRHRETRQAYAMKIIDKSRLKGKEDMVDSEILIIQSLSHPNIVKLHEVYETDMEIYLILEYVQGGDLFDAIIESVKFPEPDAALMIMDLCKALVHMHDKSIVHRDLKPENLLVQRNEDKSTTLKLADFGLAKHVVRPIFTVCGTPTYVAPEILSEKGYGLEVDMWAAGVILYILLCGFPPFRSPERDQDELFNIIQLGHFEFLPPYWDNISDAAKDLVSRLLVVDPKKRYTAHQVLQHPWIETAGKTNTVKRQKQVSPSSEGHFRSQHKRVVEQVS

[10] = molecular target: T2, Dual specificity mitogen-activated protein kinase kinase 6 (Homo sapiens) (UniProt P52564); experiment: Selectivity interaction (KinomeScan (DiscoverX)) EUB0000655a MAP2K6; settings: at 10 µM
T2 sequence (whole entry): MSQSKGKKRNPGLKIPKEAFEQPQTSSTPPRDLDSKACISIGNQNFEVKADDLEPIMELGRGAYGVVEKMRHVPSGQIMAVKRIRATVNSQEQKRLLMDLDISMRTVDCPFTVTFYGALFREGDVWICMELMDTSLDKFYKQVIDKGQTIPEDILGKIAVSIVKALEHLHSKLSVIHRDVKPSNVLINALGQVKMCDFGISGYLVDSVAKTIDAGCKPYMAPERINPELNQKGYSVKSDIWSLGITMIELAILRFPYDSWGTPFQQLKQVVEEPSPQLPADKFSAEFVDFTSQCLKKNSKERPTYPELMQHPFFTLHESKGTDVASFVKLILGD

[11] = molecular target: T3, Eukaryotic translation initiation factor 2-alpha kinase 3 (Homo sapiens) (UniProt Q9NZJ5); experiment: Selectivity interaction (ProQinase) EUB0000171b EIF2AK3
T3 sequence (whole entry): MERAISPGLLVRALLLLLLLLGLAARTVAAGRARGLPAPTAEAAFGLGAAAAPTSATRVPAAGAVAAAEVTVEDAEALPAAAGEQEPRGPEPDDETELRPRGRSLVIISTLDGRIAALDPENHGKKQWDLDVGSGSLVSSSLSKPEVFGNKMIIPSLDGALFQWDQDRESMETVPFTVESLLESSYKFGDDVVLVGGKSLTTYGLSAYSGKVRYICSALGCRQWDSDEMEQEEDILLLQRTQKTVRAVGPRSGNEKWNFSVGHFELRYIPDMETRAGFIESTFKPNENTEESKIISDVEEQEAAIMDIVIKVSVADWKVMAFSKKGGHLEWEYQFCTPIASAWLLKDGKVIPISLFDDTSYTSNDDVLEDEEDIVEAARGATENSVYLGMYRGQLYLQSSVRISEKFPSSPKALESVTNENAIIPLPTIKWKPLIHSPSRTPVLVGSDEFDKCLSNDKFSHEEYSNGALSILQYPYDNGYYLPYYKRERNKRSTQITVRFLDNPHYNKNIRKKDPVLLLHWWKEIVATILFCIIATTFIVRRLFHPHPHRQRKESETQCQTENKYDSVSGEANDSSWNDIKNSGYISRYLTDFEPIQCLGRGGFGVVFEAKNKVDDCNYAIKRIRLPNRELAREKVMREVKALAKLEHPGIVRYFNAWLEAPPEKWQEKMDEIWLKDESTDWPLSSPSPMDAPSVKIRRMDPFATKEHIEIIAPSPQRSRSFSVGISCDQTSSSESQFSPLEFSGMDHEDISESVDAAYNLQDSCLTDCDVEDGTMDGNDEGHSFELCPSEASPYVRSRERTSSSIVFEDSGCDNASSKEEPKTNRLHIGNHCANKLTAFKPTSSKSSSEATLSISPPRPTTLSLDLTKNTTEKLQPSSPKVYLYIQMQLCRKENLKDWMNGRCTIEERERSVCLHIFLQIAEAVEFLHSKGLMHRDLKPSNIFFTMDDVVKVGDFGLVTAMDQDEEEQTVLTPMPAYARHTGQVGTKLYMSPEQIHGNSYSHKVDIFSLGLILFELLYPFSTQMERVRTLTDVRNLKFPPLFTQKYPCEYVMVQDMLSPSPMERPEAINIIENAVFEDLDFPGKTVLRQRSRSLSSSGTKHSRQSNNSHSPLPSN

[12] = molecular target: Cyclin-dependent kinase 5/CDK5 activator 1 (Homo sapiens) (UniProt Q00535+Q15078); experiment: Selectivity interaction (ProQinase) EUB0000171b CDK5; format: protein-complex assay
Sequence of Cyclin-dependent kinase 5/CDK5 activator 1 (Homo sapiens) (Q00535 whole entry): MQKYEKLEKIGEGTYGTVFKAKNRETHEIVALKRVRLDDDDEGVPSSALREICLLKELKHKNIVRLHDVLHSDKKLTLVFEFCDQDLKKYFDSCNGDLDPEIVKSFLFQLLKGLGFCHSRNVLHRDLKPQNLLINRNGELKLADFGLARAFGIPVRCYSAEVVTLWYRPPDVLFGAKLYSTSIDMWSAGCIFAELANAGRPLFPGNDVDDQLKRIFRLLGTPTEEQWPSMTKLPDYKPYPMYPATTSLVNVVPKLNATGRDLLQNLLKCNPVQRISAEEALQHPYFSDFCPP
Sequence of Cyclin-dependent kinase 5/CDK5 activator 1 (Homo sapiens) (Q15078 99-307 partner limits assumed): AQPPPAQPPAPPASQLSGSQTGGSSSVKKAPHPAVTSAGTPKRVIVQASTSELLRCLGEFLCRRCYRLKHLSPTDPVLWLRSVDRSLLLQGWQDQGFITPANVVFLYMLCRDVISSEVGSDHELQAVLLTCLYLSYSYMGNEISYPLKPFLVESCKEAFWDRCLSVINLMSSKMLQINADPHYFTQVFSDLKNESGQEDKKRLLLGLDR

[13] = molecular target: Serine/threonine-protein kinase MARK1 (Homo sapiens) (UniProt Q9P0L2); experiment: Selectivity interaction (KinomeScan (DiscoverX)) EUB0000666a MARK1; settings: at 10 µM
Sequence of Serine/threonine-protein kinase MARK1 (Homo sapiens) (Q9P0L2 whole entry, looked up): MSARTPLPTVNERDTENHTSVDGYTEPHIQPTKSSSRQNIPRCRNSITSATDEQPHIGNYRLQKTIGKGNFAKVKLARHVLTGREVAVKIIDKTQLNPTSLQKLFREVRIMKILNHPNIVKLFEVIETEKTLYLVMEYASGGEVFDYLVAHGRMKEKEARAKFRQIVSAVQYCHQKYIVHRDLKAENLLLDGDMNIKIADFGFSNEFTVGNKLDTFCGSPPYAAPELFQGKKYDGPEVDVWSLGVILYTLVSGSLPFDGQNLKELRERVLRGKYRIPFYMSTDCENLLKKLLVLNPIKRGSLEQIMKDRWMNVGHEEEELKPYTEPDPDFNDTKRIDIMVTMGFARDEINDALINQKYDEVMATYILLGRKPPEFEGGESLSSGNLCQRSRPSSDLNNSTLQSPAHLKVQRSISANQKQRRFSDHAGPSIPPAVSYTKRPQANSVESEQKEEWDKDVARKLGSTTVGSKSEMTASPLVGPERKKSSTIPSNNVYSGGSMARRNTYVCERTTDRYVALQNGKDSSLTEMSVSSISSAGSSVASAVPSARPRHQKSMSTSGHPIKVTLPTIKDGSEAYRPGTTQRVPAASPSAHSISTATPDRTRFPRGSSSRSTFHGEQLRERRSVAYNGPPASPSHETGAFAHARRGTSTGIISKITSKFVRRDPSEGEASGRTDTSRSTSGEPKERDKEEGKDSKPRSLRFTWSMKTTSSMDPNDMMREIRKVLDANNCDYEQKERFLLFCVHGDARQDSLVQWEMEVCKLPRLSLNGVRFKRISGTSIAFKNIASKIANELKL

[14] = molecular target: Protein polybromo-1 (Homo sapiens) (UniProt Q86U86); experiment: Selectivity interaction (Bromodomain panel (DSF asssay)) EUB0000270b PBRM1
Sequence of Protein polybromo-1 (Homo sapiens) (Q86U86 whole entry): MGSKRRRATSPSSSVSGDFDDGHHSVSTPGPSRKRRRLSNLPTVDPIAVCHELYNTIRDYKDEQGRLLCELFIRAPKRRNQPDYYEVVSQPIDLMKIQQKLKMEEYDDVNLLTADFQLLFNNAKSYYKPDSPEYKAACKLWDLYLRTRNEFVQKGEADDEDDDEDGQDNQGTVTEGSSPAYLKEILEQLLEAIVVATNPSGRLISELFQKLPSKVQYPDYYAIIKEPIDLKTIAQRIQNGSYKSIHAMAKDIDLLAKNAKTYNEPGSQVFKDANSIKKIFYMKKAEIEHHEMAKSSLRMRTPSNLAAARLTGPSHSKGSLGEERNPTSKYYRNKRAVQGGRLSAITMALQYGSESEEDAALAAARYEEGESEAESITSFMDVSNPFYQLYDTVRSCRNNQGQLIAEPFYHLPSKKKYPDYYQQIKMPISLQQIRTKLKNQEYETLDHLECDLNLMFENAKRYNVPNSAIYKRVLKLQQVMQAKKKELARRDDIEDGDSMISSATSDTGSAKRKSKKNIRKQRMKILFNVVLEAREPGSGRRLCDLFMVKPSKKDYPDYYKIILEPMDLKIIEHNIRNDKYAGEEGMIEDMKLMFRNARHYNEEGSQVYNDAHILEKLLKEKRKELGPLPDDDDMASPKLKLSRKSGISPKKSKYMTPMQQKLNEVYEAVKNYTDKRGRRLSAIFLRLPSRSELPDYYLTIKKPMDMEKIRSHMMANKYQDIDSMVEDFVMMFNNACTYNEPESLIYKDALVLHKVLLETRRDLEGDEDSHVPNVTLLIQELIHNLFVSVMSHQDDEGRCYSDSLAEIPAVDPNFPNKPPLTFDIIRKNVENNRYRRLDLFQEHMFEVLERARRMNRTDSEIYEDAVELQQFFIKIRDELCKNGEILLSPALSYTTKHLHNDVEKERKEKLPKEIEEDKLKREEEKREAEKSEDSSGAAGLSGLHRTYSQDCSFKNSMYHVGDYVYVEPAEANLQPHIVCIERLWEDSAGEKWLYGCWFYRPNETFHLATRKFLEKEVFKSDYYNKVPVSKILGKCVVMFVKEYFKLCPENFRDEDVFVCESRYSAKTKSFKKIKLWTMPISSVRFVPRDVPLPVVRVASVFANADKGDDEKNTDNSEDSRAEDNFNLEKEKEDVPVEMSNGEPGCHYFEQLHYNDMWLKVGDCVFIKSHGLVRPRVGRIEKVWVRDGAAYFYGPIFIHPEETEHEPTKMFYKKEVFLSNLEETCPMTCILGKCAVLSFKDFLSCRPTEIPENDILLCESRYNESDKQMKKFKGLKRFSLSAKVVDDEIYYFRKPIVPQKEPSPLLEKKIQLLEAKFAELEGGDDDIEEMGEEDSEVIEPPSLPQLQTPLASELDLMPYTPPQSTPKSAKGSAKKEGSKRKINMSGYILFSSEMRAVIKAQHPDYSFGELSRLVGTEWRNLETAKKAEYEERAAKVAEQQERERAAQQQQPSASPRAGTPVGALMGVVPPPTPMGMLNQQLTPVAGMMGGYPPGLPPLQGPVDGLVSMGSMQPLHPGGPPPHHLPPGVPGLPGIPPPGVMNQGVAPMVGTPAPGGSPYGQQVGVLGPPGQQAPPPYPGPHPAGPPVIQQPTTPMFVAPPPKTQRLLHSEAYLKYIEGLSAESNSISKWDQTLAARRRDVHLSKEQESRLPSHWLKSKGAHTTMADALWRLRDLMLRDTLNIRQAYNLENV

[15] = molecular target: Ribosomal protein S6 kinase alpha-6 (Homo sapiens, UniProt Q9UK32); experiment: Selectivity interaction (Kinase panel (Invitrogen)) EUB0000639a RPS6KA6; settings: at 200 nM
[16] = molecular target: Rho-associated protein kinase 2 (Homo sapiens, UniProt O75116); experiment: Selectivity interaction (KinomeScan (DiscoverX)) EUB0000618a ROCK2; settings: at 10 µM
Sequence of Rho-associated protein kinase 2 (O75116 whole entry, looked up): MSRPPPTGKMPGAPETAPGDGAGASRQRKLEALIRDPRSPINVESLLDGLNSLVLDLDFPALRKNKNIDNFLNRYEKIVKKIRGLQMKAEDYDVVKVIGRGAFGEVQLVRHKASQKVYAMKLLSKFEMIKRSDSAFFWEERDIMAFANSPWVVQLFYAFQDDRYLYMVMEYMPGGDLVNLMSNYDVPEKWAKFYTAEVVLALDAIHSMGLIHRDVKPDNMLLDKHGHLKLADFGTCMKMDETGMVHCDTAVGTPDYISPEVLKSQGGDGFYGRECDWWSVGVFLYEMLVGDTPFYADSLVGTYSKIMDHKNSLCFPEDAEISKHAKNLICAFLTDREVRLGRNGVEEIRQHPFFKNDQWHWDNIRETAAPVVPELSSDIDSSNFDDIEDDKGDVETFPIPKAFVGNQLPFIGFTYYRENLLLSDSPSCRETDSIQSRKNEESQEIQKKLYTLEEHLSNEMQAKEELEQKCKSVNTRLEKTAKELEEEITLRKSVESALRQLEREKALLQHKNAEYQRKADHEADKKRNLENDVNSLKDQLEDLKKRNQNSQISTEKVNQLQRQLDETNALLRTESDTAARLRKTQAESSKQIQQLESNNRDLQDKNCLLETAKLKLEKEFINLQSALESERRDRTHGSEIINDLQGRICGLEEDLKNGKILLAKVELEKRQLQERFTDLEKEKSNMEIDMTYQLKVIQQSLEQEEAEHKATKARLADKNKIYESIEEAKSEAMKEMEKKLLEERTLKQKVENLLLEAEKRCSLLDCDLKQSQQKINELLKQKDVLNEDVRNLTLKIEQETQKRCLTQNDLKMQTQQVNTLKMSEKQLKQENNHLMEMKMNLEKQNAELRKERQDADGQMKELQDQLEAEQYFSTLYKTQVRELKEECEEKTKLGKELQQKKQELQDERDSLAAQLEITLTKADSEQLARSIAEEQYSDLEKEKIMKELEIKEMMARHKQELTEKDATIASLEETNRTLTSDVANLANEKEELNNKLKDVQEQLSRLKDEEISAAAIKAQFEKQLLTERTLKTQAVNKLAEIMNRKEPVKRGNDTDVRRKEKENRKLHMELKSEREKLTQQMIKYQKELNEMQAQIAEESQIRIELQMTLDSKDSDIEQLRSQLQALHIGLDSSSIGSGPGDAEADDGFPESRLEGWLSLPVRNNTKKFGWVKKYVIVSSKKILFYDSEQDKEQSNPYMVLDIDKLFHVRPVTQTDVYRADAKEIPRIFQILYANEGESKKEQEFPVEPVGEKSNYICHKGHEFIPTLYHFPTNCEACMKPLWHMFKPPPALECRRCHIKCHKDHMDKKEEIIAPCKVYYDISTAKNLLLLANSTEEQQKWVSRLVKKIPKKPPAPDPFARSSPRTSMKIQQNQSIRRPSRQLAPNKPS

COc1cc(N(C)c2ccnc3ccc(C(F)(F)F)cc23)cc(OC)c1OC
% binding [1]: 81% | % binding [2]: 90% | % binding [3]: 93% | % binding [4]: 69% | % binding [5]: 83% | % binding [6]: 41% | % binding [7]: 92% | % binding [8]: 44%

CCC(=O)N1CCN(c2ccc(-n3c(=O)ccc4cnc5ccc(-c6cnc7ccccc7c6)cc5c43)cc2C(F)(F)F)CC1
% of control [9]: 97%

CN(C)CCOc1ccc(-c2nc(-c3ccncc3)c(-c3ccc4c(c3)CC/C4=N\O)[nH]2)cc1
% of control [10]: 100%

C=CC(=O)Nc1cccc(C(=O)Nc2ccc(Nc3cc(-c4[nH]c(SC)nc4C)ccn3)cc2)c1
% of control ([11]; at 1 µM): 92% | % of control ([11]; at 5 µM): 97% | % of control ([12]; at 1 µM): 77% | % of control ([12]; at 5 µM): 54%

O=C(NOC[C@H](O)CO)c1ccc(F)c(F)c1Nc1ccc(I)cc1F
% of control [13]: 100%

Cc1cc(CN)cc(C)c1-c1ncn(C)c1-c1cncn1C
dTM [14]: -2.3 K

CC[C@@H]1[C@H](F)C(=O)N[C@@H]1COc1nccc2cc(C(N)=O)c(OC)cc12 [ZIMLOVISERTIB]
% of inhibition [15]: -1.29%

O[C@H]1CC[C@H](Nc2ncc3nc(Nc4c(F)cc(F)cc4F)n([C@H]4CCOC4)c3n2)CC1
% of control [16]: 100%
